Test results published in patent US20240293416A1, “TREATMENT OF LIVER DISORDERS WITH A THR-ß AGONIST” (Terns Pharmaceuticals, Inc., priority 2021, published 2024).
Where “and” joins values, the source holds several entries; their conditions need not be identical. Identical values can stand only once.

Experiments:
[1] = tested on: biopsy-confirmed DIO-NASH mice; assay: DIO-GAN NASH mice: liver histology (NAS, fibrosis, IHC); format: in vivo, C57BL/6JRj mice
Source text: (§1) C57BL/6JRj male mice (n=138) were fed the Gubra Amylin NASH (GAN) diet (40% fat, 22% fructose, 2% cholesterol [D09100310, Research Diets]) or lean chow diet for 35 weeks before treatment start. Prior to treatment all animals underwent liver biopsy for histological confirmation (steatosis score ≥2 and fibrosis stage ≥1) and stratification using the nonalcoholic fatty liver disease (NAFLD) activity scoring (NAS) and fibrosis staging system. The diet-induced obese mice on GAN diet (DIO-GAN) were randomized to 8 treatment groups (Table 16) based on percent-area of picrosirius red (PSR) staining. […] Vehicle-dosed lean chow-fed controls served as healthy controls (n=10). Mice were maintained on their respective diets (GAN or lean chow) for the duration of the study. Within-subject comparisons (pre-vs. post-treatment) were performed for liver biopsy histopathological scores. Terminal quantitative endpoints included plasma/liver biochemistry, liver histomorphometry, and liver transcriptomic analysis by RNAseq.
Formalin-fixed paraffin-embedded (FFPE) liver biopsies were prepared by placing liver samples into 10% neutral buffered formalin for ˜24 hours and then transferred to 70% ethanol prior to storage at 4 C. FFPE were placed in the Histokinette to infiltrate prior to embedding in blocks. Biopsy tissues were then cut at 3 μm using a microtome and sections were mounted on slides. Liver sections were stained with Hematoxylin and Eosin (H&E) to assess steatosis, inflammation, and ballooning, and PSR to assess fibrosis. Additionally, slides were processed to detect type I collagen (Col1a1), galectin-3 (Gal-3), and smooth muscle actin (α-SMA) protein expression by immunohistochemistry (IHC). For H&E staining, slides were incubated in Mayer's Hematoxylin (Dako), washed with tap water, stained in Eosin Y solution (Sigma-Aldrich), dehydrated, and coverslipped. For PSR, slides were incubated in Weigert's iron hematoxylin (Sigma-Aldrich), washed in tap water, stained in Picro-sirius red (Sigma-Aldrich), and washed twice in acidified water. Excess water was removed by shaking the slides and the slides were then dehydrated with ethanol, cleared in xylene, and cover-slipped. The NAS and fibrosis stage were scored as described previously (Kleiner et al. 2005). NAS represents the unweighted sum of steatosis, inflammation, and ballooning scores and ranges for 0-8 (Table 17); fibrosis stage ranges from 0 (no fibrosis) to 4 (cirrhosis). For detection of Col1a1, Gal-3 and α-SMA, IHC was performed by standard procedures. Briefly, after antigen retrieval and blocking of endogenous peroxidase activity, slides were incubated with primary antibody (Col1a1: Southern Biotech, Cat. 1310-01; Gal-3: Biolegend, Cat. 125402; α-SMA: Abcam Cat. Ab124964). Primary antibody was detected using a polymeric HRP-linker antibody conjugate. Primary antibody was visualized with DAB as chromogen. Finally, sections were counterstained in hematoxylin and cover-slipped.
The NAFLD Activity Score (NAS) was used to assess the histological effects of treatment. NAS is defined as the unweighted sum of steatosis, inflammation, and ballooning histological scores and can range from 0-8. NAS was determined for each animal before (baseline) and after 12-weeks of treatment at the end of study. NAS was well balanced across treatment groups with an NAS range of 5-6 at baseline in most mice (FIG. 39A). […] In addition, the magnitude of NAS improvement was greater in the combination treatment groups.

[2] = Multiple ascending doses in healthy subjects with elevated LDL-c: safety; format: in vivo, human; conditions: 1, 3, 6 or 10 mg once daily for 14 days
Source text: Objectives: Assess the overall safety and tolerability of multiple ascending doses of Compound 1 in healthy subjects with elevated LDL-c.
Primary Endpoints: Treatment-emergent adverse events (TEAEs), vital signs, clinical laboratory parameters, and electrocardiogram (ECG) monitoring.

[3] = tested on: biopsy-confirmed DIO-NASH mice; assay: DIO-GAN NASH mice: liver enzymes, plasma and liver lipids, CK18 M30; format: in vivo, C57BL/6JRj mice; conditions: for plasma triglycerides (TG): end of study
Source text: as §1
Terminal blood was harvested by cardiac puncture from mice anesthetized with isoflurane (2-3%), mixed with anticoagulant, and placed at 4 C prior to centrifugation at 3000×g for 10 minutes. Plasma supernatants were transferred to new tubes and immediately frozen on dry ice and stored at −80 C. Alanine transaminase (ALT), Aspartate transaminase (AST), Alkaline phosphatase (ALP), Triglycerides (TGs), Total Cholesterol (TC), High-density lipoprotein (HDL-c), and Low-density lipoprotein (LDL-c) were measured using commercial kits (Roche Diagnostics) on the Cobas c 501 autoanalyzer according to manufacturer's instructions. Cytokeratin 18 M30 (CK18 M30) was measured from plasma using a commercial ELISA kit (Cusabio) according to the manufacturer's instructions.
Liver samples were homogenized and TGs and TC was extracted in 5% NP-40 by heating (2×) at 90 C. Samples were centrifuged and the TG and TC content was measured in the supernatant using commercial kits (Roche Diagnostics) on the Cobas c 501 autoanalyzer, according to the manufacturer's instructions.

[4] = PO QD 12 weeks, Compound 1-low, 0.3 mg/kg
[5] = PO QD 12 weeks, Compound 1-med, 2 mg/kg
[6] = PO QD 12 weeks, Compound 1 Low, 0.3 mg/kg
[7] = PO QD 12 weeks, Compound 1 Med, 2 mg/kg
[8] = PO QD 12 weeks, Compound 2 10 mg/kg alone or plus Compound 1 0.3/2/10 mg/kg (Combo Low/Med/High)
[9] = PO QD 12 weeks, Compound 2 10 mg/kg alone or plus Compound 1 0.3/2/10 mg/kg (Combo-low/med/high)

**Q.** With `N#Cc1nn(-c2cc(Cl)c(Oc3n[nH]c(=O)c4ccccc34)c(Cl)c2)c(=O)[nH]c1=O` [Compound 1, 2-(3,5-dichloro-4-((4-oxo-3,4-dihydrophthalazin-1-yl)oxy)phenyl)-3,5-dioxo-2,3,4,5-tetrahydro-1,2,4-triazine-6-nitrile] as the molecule, how does the “NAFLD Activity Score (NAS): No change, % of mice” value [1, 4] read?
**A.** 56.25%

**Q.** What about the “NAS: Improving 1-pt, % of mice” value [1, 4] of the same molecule?
**A.** 31.25%

**Q.** And the “NAS: Improving Total (≥1-pt), % of mice” value [1, 4]?
**A.** 31% and 31.25%

**Q.** What about the “NAS: Improving ≥2-pt, % of mice” value [1, 4] of the same molecule?
**A.** 0%

**Q.** And the “NAS: Worsening ≥1-pt, % of mice” value [1, 4]?
**A.** 12.5%

**Q.** And the “NAS: Improving 1-pt, % of mice” value [1, 5]?
**A.** 20%

**Q.** What about the “NAS: Improving Total (≥1-pt), % of mice” value [1, 5] of the same molecule?
**A.** 27%

**Q.** What about the “NAS: Improving ≥2-pt, % of mice” value [1, 5] of the same molecule?
**A.** 7% and 6.7%

**Q.** And the “NAS: Worsening ≥1-pt, % of mice” value [1, 5]?
**A.** 0%

**Q.** And the “Histological Steatosis Score: No change, % of mice” value [1, 6]?
**A.** 68.75%

**Q.** And the “Liver Fibrosis stage: Improving, % of mice” value [1, 6]?
**A.** 6.25%

**Q.** What about the “Liver Fibrosis stage: No change, % of mice” value [1, 6] of the same molecule?
**A.** 62.5%

**Q.** And the “Lobular Inflammation: Improving, % of mice” value [1, 6]?
**A.** 6.25%

**Q.** And the “Lobular Inflammation: Worsening, % of mice” value [1, 6]?
**A.** 25%

**Q.** And the “Steatosis Score: Improving 1-pt, % of mice” value [1, 6]?
**A.** 25%

**Q.** And the “Steatosis Score: Improving Total, % of mice” value [1, 6]?
**A.** 31%

**Q.** What about the “Steatosis Score: Improving ≥2-pt, % of mice” value [1, 6] of the same molecule?
**A.** 6.25%

**Q.** What about the “Liver Fibrosis stage: No change, % of mice” value [1, 7] of the same molecule?
**A.** 60%

**Q.** What about the “Lobular Inflammation: Improving, % of mice” value [1, 7] of the same molecule?
**A.** 6.7%

**Q.** What about the “Lobular Inflammation: Worsening, % of mice” value [1, 7] of the same molecule?
**A.** 20%

**Q.** What about the “Steatosis Score: Improving 1-pt, % of mice” value [1, 7] of the same molecule?
**A.** 40%

**Q.** What about the “Steatosis Score: Improving Total, % of mice” value [1, 7] of the same molecule?
**A.** 47%

**Q.** What about the “Steatosis Score: Improving ≥2-pt, % of mice” value [1, 7] of the same molecule?
**A.** 6.7%

**Q.** What about the “α-SMA (IHC)” value ([1]; end of study, Compound 1-low and Compound 1-med (0.3 and 2 mg/kg)) of the same molecule?
**A.** Numeric reductions

**Q.** What about the “ALT increase to ≥2×ULN” value [2] of the same molecule?
**A.** No subject

**Q.** And the “free T4” value [2]?
**A.** Dose-dependent declines

**Q.** What about the safety and tolerability [2] of the same molecule?
**A.** generally safe and well-tolerated

**Q.** What about the “severity of AEs” value [2] of the same molecule?
**A.** mild to moderate with no apparent dose relationship

**Q.** What about the “plasma triglycerides (TG)” value ([3]; Compound 1-high, 10 mg/kg) of the same molecule?
**A.** significantly reduced

**Q.** What about the “ALT levels relative to DIO-GAN vehicle control” value ([3]; single agent Compound 1 low, med, and high (0.3, 2, 10 mg/kg)) of the same molecule?
**A.** significantly lowered

**Q.** For `Cn1cc(C(=O)O)c2ccc(C3CCC(OCc4c(-c5c(Cl)cccc5Cl)noc4C4CC4)CC3)cc21` (stereo not drawn) [Compound 2], which “Histological Steatosis Score: No change, % of mice” value [1, 8] is on record?
**A.** 18.75%

**Q.** What about the “Liver Fibrosis stage: Improving, % of mice” value [1, 8] of the same molecule?
**A.** 6.25%

**Q.** What about the “Liver Fibrosis stage: No change, % of mice” value [1, 8] of the same molecule?
**A.** 56.25%

**Q.** What about the “Liver Fibrosis stage: Worsening, % of mice” value [1, 8] of the same molecule?
**A.** 37.5%

**Q.** What about the “Lobular Inflammation: Improving, % of mice” value [1, 8] of the same molecule?
**A.** 0%

**Q.** And the “Lobular Inflammation: No change, % of mice” value [1, 8]?
**A.** 68.75%

**Q.** What about the “Lobular Inflammation: Worsening, % of mice” value [1, 8] of the same molecule?
**A.** 31.25%

**Q.** What about the “Steatosis Score: Improving 1-pt, % of mice” value [1, 8] of the same molecule?
**A.** 81.25%

**Q.** And the “Steatosis Score: Improving Total, % of mice” value [1, 8]?
**A.** 81% and 81.25%

**Q.** And the “Steatosis Score: Improving ≥2-pt, % of mice” value [1, 8]?
**A.** 0%

**Q.** What about the “NAFLD Activity Score (NAS): No change, % of mice” value [1, 9] of the same molecule?
**A.** 43.7%

**Q.** And the “NAS: Improving 1-pt, % of mice” value [1, 9]?
**A.** 56.25%

**Q.** What about the “NAS: Improving Total (≥1-pt), % of mice” value [1, 9] of the same molecule?
**A.** 56% and 56.25%

**Q.** And the “NAS: Improving ≥2-pt, % of mice” value [1, 9]?
**A.** 0%

**Q.** And the “NAS: Worsening ≥1-pt, % of mice” value [1, 9]?
**A.** 0%

**Q.** And the “α-SMA (IHC)” value ([1]; end of study, Compound 2 10 mg/kg, combinations per Table 16)?
**A.** Numeric reductions

**Q.** What about the “Gal-3 expression in the liver (IHC) relative to DIO-GAN vehicle control” value ([1]; end of study, doses per Table 16) of the same molecule?
**A.** lower levels of Gal-3 expression

**Q.** And the “plasma triglycerides (TG)” value ([3]; Compound 2 10 mg/kg and combinations)?
**A.** significantly reduced
